Source: patent publication US6013651A, “Meta-azacyclic amino benzoic acid compounds and derivatives thereof” (G. D. Searle & Co., priority 1998, dated 2000)
Structures can show the parent of a compound that is named as a salt. Where two headings read alike, the source gives them in different places.

Experiments:
[1] = molecular target: T1, human fibrinogen receptor (αIIb β3) (Homo sapiens, UniProt P05106+P08514); test: Purified IIb/IIIa receptor assay, solid phase receptor assay (inhibition of biotinylated vitronectin binding); conditions: 1 nM biotinylated human vitronectin, pH 7.4, 2 h competition
T1 construct: purified from outdated platelets; from tissue; host or cells: outdated human platelets
Excerpt: Human fibrinogen receptor (αIIb β3) was purified from outdated platelets. (Pytela, R., Pierschbacher, M. D., Argraves, S., Suzuki, S., and Rouslahti, E. "Arginine-Glycine-Aspartic acid adhesion receptors", Methods in Enzymology 144(1987):475-489.) Human vitronectin was purified from fresh frozen plasma as described in Yatohgo, T., Izumi, M., Kashiwagi, H., and Hayashi, M., "Novel purification of vitronectin from human plasma by heparin affinity chromatography," Cell Structure and Function 13(1988):281-292. Biotinylated human vitronectin was prepared by coupling NHS-biotin from Pierce Chemical Company (Rockford, Il.) to purified vitronectin as previously described. (Charo, I. F., Nannizzi, L., Phillips, D. R., Hsu, M. A., Scaround bottomorough, R. M., "Inhibition of fibrinogen binding to GP IIIb/IIIa by a GP IIIa peptide", J. Biol. Chem. 266(3)(1991): 1415-1421.) Assay buffer, OPD substrate tablets, and RIA grade BSA were obtained from Sigma (St. Louis, Mo.). Anti-biotin antibody was obtained from Calbiochem (La Jolla, Calif.). Linbro microtiter plates were obtained from Flow Labs (McLean, Va.). ADP reagent was obtained from Sigma (St. Louis, Mo.).
This assay is essentially the same reported in Niiya, K., Hodson, E., Bader, R., Byers-Ward, V. Koziol, J. A., Plow, E. F. and Ruggeri, Z. M., "Increased surface expression of the membrane glycoprotein IIb/IIIa complex induced by platelet activation: Relationships to the binding of fibrinogen and platelet aggregation", Blood 70(1987):475-483. The purified human fibrinogen receptor (αIIb β3) was diluted from stock solutions to 1.0 μg/mL in Tris-buffered saline containing 1.0 mM Ca^++, Mg^++, and Mn^++, pH 7.4 (TBS^+++). The diluted receptor was immediately transferred to Linbro microtiter plates at 100 μL/well (100 ng receptor/well). The plates were sealed and incubated overnight at 4° C. to allow the receptor to bind to the wells. All remaining steps were at room temperature. The assay plates were emptied and 200 μL of 1% RIA grade BSA in TBS^+++ (TBS^+++ /BSA) were added to block exposed plastic surfaces. Following a 2 hour incubation, the assay plates were washed with TBS^+++ using a 96 well plate washer. Logarithmic serial dilution of the test compound and controls were made starting at a stock concentration of 2 mM and using 2 nM biotinylated vitronectin in TBS^+++ /BSA as the diluent. This premixing of labeled ligand with test (or control) ligand, and subsequent transfer of 50 μL aliquots to the assay plate was carried out with a CETUS Propette robot; the final concentration of the labeled ligand was 1 nM and the highest concentration of test compound was 1.0×10^-4 M. The competition occurred for two hours after which all wells were washed with a plate washer as before. Affinity purified horseradish peroxidase labeled goat anti-biotin antibody was diluted 1:3000 in TBS^+++ /BSA and 125 μL were added to each well. After 30 minutes, the plates were washed and incubated with […]/H2 O2 substrate in 100 mM/L citrate buffer, pH 5.0. The plate was read with a microtiter plate reader at a wavelength of 450 nm and when the maximum-binding control wells reached an absoround bottomance of about 1.0, the final A450 were recorded for analysis. The data were analyzed using a macro written for use with the EXCEL™ spreadsheet program. The mean, standard deviation, and % CV were determined for duplicate concentrations. The mean A450 values were normalized to the mean of four maximum-binding controls (no competitor added)(B-MAX). The normalized values were subjected to a four parameter curve fit algorithm, [Robard et al., Int.

[2] = molecular target: T2, human vitronectin receptor (αv β3) (Homo sapiens, UniProt P05106+P06756); test: Vitronectin adhesion assay, solid phase receptor assay (inhibition of biotinylated vitronectin binding to purified αvβ3)
T2 construct: purified from human placenta; from tissue; host or cells: human placenta
Experimental: Human vitronectin receptor (αv β3) was purified from human placenta as previously described [Pytela et al., Methods in Enzymology, 144:475-489 (1987)]. Human vitronectin was purified from fresh frozen plasma as previously described [Yatohgo et al., Cell Structure and Function, 13:281-292 (1988)]. Biotinylated human vitronectin was prepared by coupling NHS-biotin from Pierce Chemical Company (Rockford, Ill.) to purified vitronectin as previously described [Charo et al., J. Biol. Chem., 266(3):1415-1421 (1991)]. Assay buffer, OPD substrate tablets, and RIA grade BSA were obtained from Sigma (St. Louis, Mo.). Anti-biotin antibody was obtained from Calbiochem (La Jolla, Calif.). Linbro microtiter plates were obtained from Flow Labs (McLean, Va.). ADP reagent was obtained from Sigma (St. Louis, Mo.).
This assay was essentially the same as previously reported [Niiya et al., Blood, 70:475-483 (1987)]. The purified human vitronectin receptor (αv β3) was diluted from stock solutions to […] in tris-buffered saline containing 1.0 mM Ca^++, Mg^++, and Mn^++, pH 7.4 (TBS^+++). The diluted receptor was immediately transferred to Linbro microtiter plates at 100 µL/well (100 ng receptor/well). The plates were sealed and incubated overnight at 4° C. to allow the receptor to bind to the wells. All remaining steps were at room temperature. The assay plates were emptied and 200 µL of 1% RIA grade BSA in TBS^+++ (TBS^+++ /BSA) were added to block exposed plastic surfaces. Following a 2 hour incubation, the assay plates were washed with TBS^+++ using a 96 well plate washer. Logarithmic serial dilution of the test compound and controls were made starting at a stock concentration of 2 mM and using 2 nM biotinylated vitronectin in TBS^+++ /BSA as the diluent. This premixing of labeled ligand with test (or control) ligand, and subsequent transfer of 50 µL aliquots to the assay plate was carried out with a CETUS Propette robot; the final concentration of the labeled ligand was 1 nM and the highest concentration of test compound was 1.0×10^-4 M. The competition occurred for two hours after which all wells were washed with a plate washer as before. Affinity purified horseradish peroxidase labeled goat anti-biotin antibody was diluted 1:3000 in TBS^+++ /BSA and 125 µL were added to each well. After 30 minutes, the plates were washed and incubated with OPD/H2 O substrate in 100 mM/L Citrate buffer, pH 5.0. The plate was read with a microtiter plate reader at a wavelength of 450 nm and when the maximum-binding control wells reached an absoround bottomance of about 1.0, the final A450 were recorded for analysis. The data were analyzed using a macro written for use with the EXCEL spreadsheet program. The mean, standard deviation, and % CV were determined for duplicate concentrations. The mean A450 values were normalized to the mean of four maximum-binding controls (no competitor added)(B-MAX). The normalized values were subjected to a four parameter curve fit algorithm [Rodbard et al., Int.

[3] = 1 nM biotinylated human vitronectin, purified receptor, pH 7.4, 2 h competition, read-out: αv β3 IC50

T1 sequence (P08514 32-887 limits assumed): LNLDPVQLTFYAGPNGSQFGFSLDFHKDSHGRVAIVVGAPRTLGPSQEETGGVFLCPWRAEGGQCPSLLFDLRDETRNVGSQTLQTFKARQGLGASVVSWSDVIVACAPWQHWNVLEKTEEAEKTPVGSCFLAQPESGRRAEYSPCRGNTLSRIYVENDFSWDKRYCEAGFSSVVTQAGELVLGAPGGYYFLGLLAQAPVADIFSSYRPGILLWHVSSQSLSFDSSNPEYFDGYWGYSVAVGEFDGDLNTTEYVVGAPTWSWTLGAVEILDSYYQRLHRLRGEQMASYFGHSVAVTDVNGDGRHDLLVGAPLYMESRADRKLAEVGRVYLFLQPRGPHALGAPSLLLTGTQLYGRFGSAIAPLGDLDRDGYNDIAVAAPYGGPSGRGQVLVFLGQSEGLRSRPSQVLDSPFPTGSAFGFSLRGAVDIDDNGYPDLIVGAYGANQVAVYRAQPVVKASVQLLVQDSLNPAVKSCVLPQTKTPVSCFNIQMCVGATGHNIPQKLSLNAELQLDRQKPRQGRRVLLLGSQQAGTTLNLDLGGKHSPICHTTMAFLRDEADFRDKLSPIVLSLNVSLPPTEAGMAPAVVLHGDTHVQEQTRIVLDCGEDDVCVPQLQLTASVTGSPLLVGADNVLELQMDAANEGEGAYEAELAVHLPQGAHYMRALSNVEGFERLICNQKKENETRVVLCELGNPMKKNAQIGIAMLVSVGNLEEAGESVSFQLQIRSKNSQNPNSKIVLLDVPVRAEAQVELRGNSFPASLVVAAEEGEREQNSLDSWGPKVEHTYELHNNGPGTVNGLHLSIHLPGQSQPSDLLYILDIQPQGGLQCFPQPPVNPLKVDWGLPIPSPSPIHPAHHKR
T1 sequence (P08514 891-1039 limits assumed): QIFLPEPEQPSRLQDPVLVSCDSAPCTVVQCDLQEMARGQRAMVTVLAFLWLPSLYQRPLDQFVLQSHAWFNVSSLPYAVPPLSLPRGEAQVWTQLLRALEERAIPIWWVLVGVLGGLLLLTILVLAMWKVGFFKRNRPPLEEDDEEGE
T1 sequence (P05106 27-788): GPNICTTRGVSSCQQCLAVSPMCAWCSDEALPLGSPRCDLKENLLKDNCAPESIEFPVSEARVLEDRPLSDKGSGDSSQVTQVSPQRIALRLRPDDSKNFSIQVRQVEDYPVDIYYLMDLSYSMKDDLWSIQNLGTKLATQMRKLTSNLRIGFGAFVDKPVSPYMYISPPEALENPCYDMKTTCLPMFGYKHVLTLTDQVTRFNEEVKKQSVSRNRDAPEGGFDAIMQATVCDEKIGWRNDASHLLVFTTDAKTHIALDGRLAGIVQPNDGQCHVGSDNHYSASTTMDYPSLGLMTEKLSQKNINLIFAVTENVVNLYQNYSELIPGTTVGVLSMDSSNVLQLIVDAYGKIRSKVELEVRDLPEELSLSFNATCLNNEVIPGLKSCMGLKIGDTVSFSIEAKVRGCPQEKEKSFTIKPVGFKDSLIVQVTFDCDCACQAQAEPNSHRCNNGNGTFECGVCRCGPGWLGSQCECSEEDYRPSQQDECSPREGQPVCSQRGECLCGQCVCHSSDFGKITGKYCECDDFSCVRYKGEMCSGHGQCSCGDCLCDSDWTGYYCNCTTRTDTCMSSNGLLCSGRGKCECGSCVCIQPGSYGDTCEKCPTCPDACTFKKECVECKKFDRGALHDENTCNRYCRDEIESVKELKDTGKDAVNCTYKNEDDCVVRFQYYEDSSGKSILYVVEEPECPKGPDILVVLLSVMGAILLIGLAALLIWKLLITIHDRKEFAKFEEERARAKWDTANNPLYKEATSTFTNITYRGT
T2 sequence (P06756 31-889 limits assumed): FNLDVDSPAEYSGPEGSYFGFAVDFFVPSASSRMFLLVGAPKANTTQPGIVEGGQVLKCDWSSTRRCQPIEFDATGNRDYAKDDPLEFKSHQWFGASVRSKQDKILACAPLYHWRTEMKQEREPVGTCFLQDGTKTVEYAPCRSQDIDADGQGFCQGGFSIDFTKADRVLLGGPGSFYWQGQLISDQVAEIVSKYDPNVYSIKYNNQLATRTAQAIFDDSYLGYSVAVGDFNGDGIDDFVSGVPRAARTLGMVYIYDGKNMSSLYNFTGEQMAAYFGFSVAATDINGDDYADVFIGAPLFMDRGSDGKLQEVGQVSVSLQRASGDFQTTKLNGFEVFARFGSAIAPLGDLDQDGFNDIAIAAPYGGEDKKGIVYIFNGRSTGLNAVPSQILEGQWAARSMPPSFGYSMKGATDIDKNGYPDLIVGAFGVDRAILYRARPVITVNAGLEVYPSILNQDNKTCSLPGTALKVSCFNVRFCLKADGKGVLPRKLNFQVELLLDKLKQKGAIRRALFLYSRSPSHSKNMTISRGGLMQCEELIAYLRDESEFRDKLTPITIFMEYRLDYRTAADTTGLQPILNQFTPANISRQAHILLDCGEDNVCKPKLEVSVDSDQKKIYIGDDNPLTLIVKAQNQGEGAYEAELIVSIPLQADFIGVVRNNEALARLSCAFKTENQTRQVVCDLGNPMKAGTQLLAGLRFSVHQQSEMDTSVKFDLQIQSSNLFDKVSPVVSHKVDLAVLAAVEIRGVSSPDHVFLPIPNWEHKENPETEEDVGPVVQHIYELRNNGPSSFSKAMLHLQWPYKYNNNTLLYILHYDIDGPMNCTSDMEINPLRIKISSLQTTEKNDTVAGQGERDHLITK
T2 sequence (P06756 891-1048 limits assumed): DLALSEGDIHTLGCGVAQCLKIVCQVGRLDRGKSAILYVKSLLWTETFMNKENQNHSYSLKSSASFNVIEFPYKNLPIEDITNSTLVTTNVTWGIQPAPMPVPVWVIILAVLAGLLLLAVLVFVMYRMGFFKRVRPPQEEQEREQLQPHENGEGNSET
T2 sequence (P05106 27-788): as the sequence (P05106 27-788) above

IC50 [1] [nM]	IC50 [2, 3] [nM]	IC50 ([2]; positive control included on each plate, read-out: αv β3 antagonist IC50 of positive control) [nM]	Compound
310	0.88		O=C(O)CC(NC(=O)CNC(=O)c1cc(O)cc(NC2=NCC(O)CN2)c1)c1cc(Cl)cc(Br)c1O (racemic) [Example 1, (±) 3-bromo-5-chloro-2-hydroxy-β-[[2-[[[3-hydroxy-5-[(1,4,5,6-tetrahydro-5-hydroxypyrimidin-2-yl)amino]phenyl]carbonyl]amino]acetyl]amino]benzenepropanoic acid, trifluroacetate salt]
226	0.82		O=C(O)C[C@H](NC(=O)CNC(=O)c1cc(O)cc(NC2=NCC(O)CN2)c1)c1cc(Cl)cc(Br)c1O (stereo partly shown) [9 · HCl]
430	1.04		O=C(O)CC(NC(=O)CNC(=O)c1cc(O)cc(NC2=NCC(O)CN2)c1)c1cc(Cl)cc(Cl)c1O (stereo not shown) [Example 2]
2440	23.7		O=C(O)CC(NC(=O)CNC(=O)c1cc(O)cc(NC2=NCC(O)CN2)c1)c1cc(Br)cc(I)c1O (stereo not shown) [Example 3]
575	2.02		O=C(O)CC(NC(=O)CNC(=O)c1cc(O)cc(NC2=NCC(O)CN2)c1)c1cc(Br)cc(Cl)c1O (stereo not shown) [Example 4]
744	2.13		O=C(O)CC(NC(=O)CNC(=O)c1cc(O)cc(NC2=NCC(O)CN2)c1)c1cc(Cl)cc(I)c1O (stereo not shown) [Example 5]
919	6.46		O=C(O)CC(NC(=O)CNC(=O)c1cc(O)cc(NC2=NCC(O)CN2)c1)c1cc(Br)cc(Br)c1O (stereo not shown) [Example 6]
262	1.01		O=C(O)C[C@H](NC(=O)CNC(=O)c1cc(O)cc(N=C2NCC(O)CN2)c1)c1cc(Br)cc(Cl)c1O (stereo partly shown) [Example 7]
131	0.4		O=C(O)C[C@H](NC(=O)CNC(=O)c1cc(O)cc(N=C2NCC(O)CN2)c1)c1cc(Cl)cc(Cl)c1O (stereo partly drawn) [Example 8, (S) 3,5-dichloro-2-hydroxy-β-[[2-[[[3-hydroxy-5-[(1,4,5,6-tetrahydro-5-hydroxypyrimidin-2-yl)amino]phenyl]carbonyl]amino]acetyl]amino]-benzenepropanoic acid, monohydrochloride monohydrate]
388	0.37		O=C(O)C[C@H](NC(=O)CNC(=O)c1cc(O)cc(NC2=NCC(O)CN2)c1)c1cc(Cl)cc(Br)c1O (stereo partly drawn) [Example 9, (S) 3-bromo-5-chloro-2-hydroxy-β-[[2-[[[3-hydroxy-5-[(1,4,5,6-tetrahydro-5-hydroxypyrimidin-2-yl)amino]phenyl]carbonyl]amino]acetyl]amino]-benzenepropanoic acid, trifluoroacetate salt]
641	2.26		O=C(O)C[C@H](NC(=O)CNC(=O)c1cc(O)cc(NC2=NCC(O)CN2)c1)c1cc(Br)cc(Br)c1O (stereo partly shown) [Example 10]
1060	9.59		O=C(O)C[C@H](NC(=O)CNC(=O)c1cc(O)cc(NC2=NCC(O)CN2)c1)c1cc(Br)cc(I)c1O (stereo partly shown) [Example 12]
		3 to 10	N=C(N)NCCCCC(=O)NCC(=O)NC(CC(=O)O)c1cccnc1 (stereo not drawn) [β-[[2-[[5-[(aminoiminomethyl)-amino]-1-oxopentyl]amino]-1-oxoethyl]amino]-3-pyridinepropanoic acid, reference compound]
